IC50 data for 48 compounds are collected here from patent publication US20200147039A1, “COMPOUNDS USEFUL IN INHIBITING HUMAN TREFOIL FACTOR 3” (NATIONAL UNIVERSITY OF SINGAPORE, priority 2017, published 2020).

The structures appear in SMILES notation.

The assay relates to MCF-7. Nature of the assay: AlamarBlue cell viability assay, MCF7. It counts as cell-based, human. The following applies: Homo sapiens, MCF7, MCF-7, AlamarBlue cell viability (Table 8). The text has this:
(A) Inhibitory concentration 50% (IC50) values for compound 43 in the MC cell lines are tabulated, using an AlamarBlue™ cell viability assay as previously described in Pandey V et al., Breast Cancer Res. 2014; 16(5):429. (B) Measured dose-dependent manner effect of compound 43 on the viability of MC cells (left-side, TFF3-high and right, TFF3-low) using AlamarBlue™ viability assay as previously described (ibid). (C) Apoptotic cell death of mammary carcinoma cell lines measured after treatment with 10 μM compound 43 using flow cytometry analysis at 24 hour as described previously in Keerthy H K et al., PloS one. 2014; 9(9):e107118. Annexin V-FITC staining is indicated on the X-axis and PI staining on the Y-axis. […] Acquisition of Annexin V and PI data were represented as percentage (%) in each quadrant. Note: CM, conditioned media; MCF10A and MCF12A, non-transformed immortalized-mammary epithelial cell line. Points are mean of triplicate experiments; bars, ±SD. Statistical significance was assessed by using an unpaired two-tailed Student's t test (P<0.05 was considered as significant) using GraphPad Prism5. Columns are mean of triplicate experiments; bars, ±SD. **P<0.001, *P<0.05.
The human immortalized mammary epithelial cell lines, MCF10A, and MCF12A; and immortalized hepatocellular epithelial cell line, LO2 were obtained from the American Type Culture Collection (ATCC, Rockville, Md.) and were cultured as per ATCC propagation instructions. MC cell lines, MCF7, T47D, BT474, BT20, MDA-MB-361, MDA-MB-436, MDA-MB-468, and MDA-MB-231; endometrial carcinoma cell lines, Ishikawa, ECC1, RL95-2 and AN3; hepatocellular carcinoma cell lines, Hep3B, H2P, and H2M; colon carcinoma cell lines, DLD-1, and Caco-2; and prostate carcinoma cell lines, PC3, LNCaP, and DU145 were obtained from the American Type Culture Collection (ATCC, Rockville, Md.). Pancreatic carcinoma cell lines, AsPC-1 and BxPC-3; Lung carcinoma cell lines, HCC-827, NCI-H1975, HCC-4006, PC-14, and NCI-H1299; and Thyroid carcinoma cell lines HTH83, CAL62, T238, and OGK-M were obtained from Prof. H. Phillip Koeffler's laboratory at The Cancer Science Institute of Singapore, National University of Singapore (NUS). Gastric carcinoma cell lines, AGS, MKN-28, MKN-45, and A2-528 were obtained from Prof. Yoshiaki Ito's laboratory at The Cancer Science Institute of Singapore, NUS. All cell lines were cultured as per ATCC propagation instructions.
The above synthesised compounds were initially evaluated against a range of carcinoma cells using an AlamarBlue™ cell viability assay (using the protocol discussed above). The tested compounds were generally efficacious at reducing the viability of various carcinoma cells compared to vehicle (DMSO) treated cells. Table 8 provides selected IC50 data for certain of the compounds synthesised herein against MCF-7.
In table 9 IC50 values of compound 43 compound library in several cancer cell lines are tabulated, using an AlamarBlue® cell viability assay as previously described in Pandey V et al., Breast Cancer Res. 2014; 16(5):429. Statistical analysis was assessed by using GraphPad Prism5. Note: NV, no value.
(Alamar Blue is a resazurin reagent that responds to reducing activity.)

Compound `N#CC1=C(N)Oc2c(c(=O)oc3ccccc23)C1c1ccc(-c2cn[nH]c2)cc1` (stereo not drawn) [Compound 129] yielded an IC50 of 263 µM.

As to `COc1ccc2c3c(c(=O)oc2c1)C(c1ccc(-c2ccc(C(F)(F)F)cc2)cc1)C(C#N)=C(N)O3` (stereo not drawn) [Compound 151], inhibition was half-maximal at 2.45 µM (IC50).

In turn, `COc1cccc(-c2ccc(C3C(C#N)=C(N)Oc4c3c(=O)oc3ccccc43)c(F)c2)c1` (stereo not drawn) [Compound 140] had an IC50 of 1.07 µM.

`COc1cccc(-c2cc(C3C(C#N)=C(N)Oc4c3c(=O)oc3ccccc43)ccc2OC)c1` (stereo not drawn) [Compound 61] returned an IC50 of 8.94 µM.

`COc1ccc(C2C(C#N)=C(N)Oc3c2c(=O)oc2ccccc32)cc1-c1ccccc1C` (stereo not drawn) [Compound 55]: half-maximal inhibition (IC50) required 18.6 µM.

Take `N#CC1=C(N)Oc2c(c(=O)oc3ccccc23)C1c1ccc(-c2ccncc2)cc1F` (stereo not drawn) [Compound 131]: it took 2.89 µM to reach half-maximal inhibition (IC50).

On to `COc1ccc2c3c(c(=O)oc2c1)C(c1ccc(-c2ccncc2)cc1)C(C#N)=C(N)O3` (stereo not drawn) [Compound 146], for which it took 7.04 µM to reach half-maximal inhibition (IC50).

`N#CC1=C(N)Oc2c(c(=O)oc3ccccc23)C1c1ccc(-c2ccc(Cl)cc2)cc1` (stereo not drawn) [Compound 127]: the IC50 amounted to 3.25 µM.

`COc1ccc(CC(=O)NC2=C(C#N)C(c3ccc(OC)c(-c4cnc(F)c(C)c4)c3)c3c(c4ccccc4oc3=O)O2)cc1OC` (stereo not drawn) [Compound 104] had an IC50 of 8.96 µM.

On to `COc1ccc(S(=O)(=O)NC2=C(C#N)C(c3ccc(OC)c(-c4cnc(F)c(C)c4)c3)c3c(c4ccccc4oc3=O)O2)cc1` (stereo not drawn) [Compound 111], for which the IC50 was found to be 39.3 µM.

As to `COc1ccc2c3c(c(=O)oc2c1)C(c1ccc(-c2ccccc2C)cc1)C(C#N)=C(N)O3` (stereo not drawn) [Compound 163], the IC50 worked out at 22.8 µM.

As to `N#CC1=C(N)Oc2c(c(=O)oc3ccccc23)C1c1ccc(-c2cccc3ccccc23)cc1` (stereo not drawn) [Compound 125], the IC50 was found to be 8.23 µM.

Consider `N#CC1=C(N)Oc2c(c(=O)oc3ccccc23)C1c1ccc(-c2cccnc2)cc1F` (stereo not drawn) [Compound 133], for which half-maximal inhibition (IC50) required 3.26 µM.

On to `N#CC1=C(N)Oc2c(c(=O)oc3ccccc23)C1c1ccc(-c2ccc(C=O)o2)cc1F` (stereo not drawn) [Compound 136], for which the IC50 amounted to 1.67 µM.

Consider `N#CC1=C(N)Oc2c(c(=O)oc3ccccc23)C1c1ccc(-c2ccc(Cl)c(C(F)(F)F)c2)cc1` (stereo not drawn) [Compound 25], for which 18.4 µM corresponded to half-maximal inhibition (IC50).

In turn, `Cc1cc(-c2ccc(C3C(C#N)=C(NS(=O)(=O)c4ccccc4)Oc4c3c(=O)oc3ccccc43)cc2)cnc1F` (stereo not drawn) [Compound 107] returned an IC50 of 19.5 µM.

Consider `N#CC1=C(N)Oc2c(c(=O)oc3ccc(F)cc23)C1c1ccc(-c2cccnc2)cc1` (stereo not drawn) [Compound 144], for which the IC50 stood at 6.85 µM.

Compound `COc1ccc(C2C(C#N)=C(NS(=O)(=O)c3ccc([N+](=O)[O-])cc3)Oc3c2c(=O)oc2ccccc32)cc1-c1cnc(F)c(C)c1` (stereo not drawn) [Compound 112] returned an IC50 of 101 µM.

On to `Cc1cc(-c2ccc(C3C(C#N)=C(N)Oc4c3c(=O)oc3ccccc43)cc2)cnc1Cl` (stereo not drawn) [Compound 122], for which the IC50 came out at 73.9 µM.

With `Cc1cc(-c2ccc(C3C(C#N)=C(NC(=O)c4cc(Cl)ccc4Cl)Oc4c3c(=O)oc3ccccc43)cc2)cnc1F` (stereo not drawn) [Compound 100], the IC50 was 177 µM.

On to `N#CC1=C(N)Oc2c(c(=O)oc3ccccc23)C1c1ccc(-c2ccncc2)cc1` (stereo not drawn) [Compound 121], for which the IC50 is 15.8 µM.

The compound `Cc1ccccc1-c1ccc(C2C(C#N)=C(N)Oc3c2c(=O)oc2ccccc32)c(F)c1` (stereo not drawn) [Compound 138] gave an IC50 of 0.751 µM.

Take `Cc1cc(-c2ccc(C3C(C#N)=C(N)Oc4c3c(=O)oc3ccc(F)cc43)cc2)cnc1Cl` (stereo not drawn) [Compound 147]: the concentration for half-maximal inhibition (IC50) came out at 0.526 µM.

In turn, `COc1ccc(C2C(C#N)=C(NC(=O)c3ccc(C(F)(F)F)cc3)Oc3c2c(=O)oc2ccccc32)cc1-c1cnc(F)c(C)c1` (stereo not drawn) [Compound 102] yielded a half-inhibitory concentration (IC50) of 33 µM.

In turn, `N#CC1=C(N)Oc2c(c(=O)oc3ccccc23)C1c1ccc(-c2cncnc2)cc1F` (stereo not drawn) [Compound 139] gave an IC50 of 4.23 µM.

As for `Cc1ccccc1-c1ccc(C2C(C#N)=C(N)Oc3c2c(=O)oc2ccc(F)cc32)cc1` (stereo not drawn) [Compound 162], the IC50 was 164 µM.

Turning to `N#CC1=C(N)Oc2c(c(=O)oc3ccc(F)cc23)C1c1ccc(-c2ccncc2)cc1` (stereo not drawn) [Compound 145], half-maximal inhibition (IC50) required 2.81 µM.

In the case of `N#CC1=C(N)Oc2c(c(=O)oc3ccccc23)C1c1ccc(-c2cncnc2)cc1` (stereo not drawn) [Compound 128], the IC50 stood at 200 µM.

The compound `COc1ccc(C2C(c3nnn[nH]3)=C(N)Oc3c2c(=O)oc2ccccc32)cc1-c1cnc(F)c(C)c1` (stereo not drawn) [Compound 114] had an IC50 of 39.8 µM.

`Cc1cc(-c2ccc(C3C(C#N)=C(NC(=O)c4cccn4C)Oc4c3c(=O)oc3ccccc43)cc2)cnc1F` (stereo not drawn) [Compound 101] had an IC50 of 40.4 µM.

The compound `N#CC1=C(N)Oc2c(c(=O)oc3ccccc23)C1c1ccc(-c2cccnc2)cc1` (stereo not drawn) [Compound 31] came in with an IC50 of 5.21 µM.

`COc1ccc2c3c(c(=O)oc2c1)C(c1ccc(-c2ccc(C)nc2)cc1)C(C#N)=C(N)O3` (stereo not drawn) [Compound 153] came in with a concentration for half-maximal inhibition (IC50) of 4.9 µM.

In turn, `COc1ccc(C2C(C#N)=C(NC(=O)Cc3cccc(Cl)c3)Oc3c2c(=O)oc2ccccc32)cc1-c1cnc(F)c(C)c1` (stereo not drawn) [Compound 103] came in with an IC50 of 40 µM.

The compound `COc1ccc2c3c(c(=O)oc2c1)C(c1ccc(-c2cccnc2)cc1)C(C#N)=C(N)O3` (stereo not drawn) [Compound 143] gave an IC50 of 0.685 µM.

With `Cc1cc(-c2ccc(C3C(C#N)=C(NC(=O)Cc4cccc(Cl)c4)Oc4c3c(=O)oc3ccccc43)cc2)cnc1F` (stereo not drawn) [Compound 98], the IC50 was 58.3 µM.

As to `Cc1cc(-c2ccc(C3C(C#N)=C(N)Oc4c3c(=O)oc3ccccc43)c(F)c2)cnc1Cl` (stereo not drawn) [Compound 132], the IC50 was 1.21 µM.

Take `Cc1ccc(-c2ccc(C3C(C#N)=C(N)Oc4c3c(=O)oc3ccc(F)cc43)cc2)cn1` (stereo not drawn) [Compound 152]: the IC50 came out at 77.6 µM.

Compound `COc1ccc(C2C(C#N)=C(NC(=O)c3cccn3C)Oc3c2c(=O)oc2ccccc32)cc1-c1cnc(F)c(C)c1` (stereo not drawn) [Compound 106] gave an IC50 of 55 µM.

`COc1ccc(CC(=O)NC2=C(C#N)C(c3ccc(-c4cnc(F)c(C)c4)cc3)c3c(c4ccccc4oc3=O)O2)cc1OC` (stereo not drawn) [Compound 99]: half-maximal inhibition (IC50) was put at 33.4 µM.

Take `CC(=O)c1ccc(-c2ccc(C3C(C#N)=C(N)Oc4c3c(=O)oc3ccc(F)cc43)cc2)s1` (stereo not drawn) [Compound 158]: the IC50 is 95.2 µM.

`N#CC1=C(N)Oc2c(c(=O)oc3ccccc23)C1c1ccc(-c2cccc3ccccc23)cc1F` (stereo not drawn) [Compound 141] had an IC50 of 1.7 µM.

On to `COc1ccc(C2C(C#N)=C(N)Oc3c2c(=O)oc2ccccc32)cc1-c1cnc(F)c(C)c1` (stereo not drawn) [Compound 91], for which the IC50 is 11.8 µM.

The compound `N#CC1=C(N)Oc2c(c(=O)oc3ccc(F)cc23)C1c1ccc(-c2cccnc2)cc1F` (stereo not drawn) [Compound 166] showed an IC50 of 53.8 µM.

Consider `N#CC1=C(N)Oc2c(c(=O)oc3ccc(F)cc23)C1c1ccc(-c2cncnc2)cc1` (stereo not drawn) [Compound 160], for which the IC50 was found to be 253 µM.

As for `N#CC1=C(N)Oc2c(c(=O)oc3ccccc23)C1c1ccc(-c2ccccc2)cc1` (stereo not drawn) [Compound 1], the IC50 was 22.6 µM.

In turn, `COc1ccc2c3c(c(=O)oc2c1)C(c1ccc(-c2ccnc(F)c2C)cc1)C(C#N)=C(N)O3` (stereo not drawn) [Compound 150] showed an IC50 of 1.12 µM.

Compound `Cc1cc(-c2ccc(C3C(C#N)=C(N)Oc4c3c(=O)oc3ccc(F)cc43)c(F)c2)cnc1Cl` (stereo not drawn) [Compound 170] registered an IC50 of 27.3 µM.

`N#CC1=C(N)Oc2c(c(=O)oc3ccc(F)cc23)C1c1ccc(-c2ccc(Cl)cc2)cc1` (stereo not drawn) [Compound 155] had an IC50 of 36.1 µM.

What is called IC50 is the midpoint of a concentration-inhibition curve. A high value points to lower potency.
